Experimental data from the OPERA property sets (Mansouri et al. 2018).
In brackets after ≈: the same amount, converted by molar mass.

Conditions: for solubility: 25 °C

logP	solubility	SMILES
-0.3	–	COC(=O)c1cc(S(N)(=O)=O)ccc1S(=O)(=O)CCCO
1.04	2.18 mM (≈ 600 µg/mL)	NS(=O)(=O)c1ccc(SCCCCCO)cc1
0.72	23.9 mM (≈ 6000 µg/mL)	NS(=O)(=O)c1ccc(SCCO)c(F)c1
0.36	15 mM (≈ 3500 µg/mL)	NS(=O)(=O)c1ccc(SCCO)cc1
-0.6	–	Nc1cc(S(N)(=O)=O)ccc1S(=O)(=O)CCO
0.17	92.9 mM (≈ 20000 µg/mL)	NS(=O)(=O)c1ccc(CCCO)cc1
0.98	–	CC(=O)OCCCc1ccc(S(N)(=O)=O)cc1
0.11	–	CC(=O)OCCS(=O)(=O)c1ccc(S(N)(=O)=O)s1
0.57	64.1 mM (≈ 14700 µg/mL)	NS(=O)(=O)c1ccc(CCCCO)cc1
0.38	1.8 mM (≈ 500 µg/mL)	NS(=O)(=O)c1ccc(SCCO)c([N+](=O)[O-])c1
0.8	5.66 mM (≈ 1400 µg/mL)	NS(=O)(=O)c1ccc(SCCCO)cc1
-0.14	–	COCC(=O)OCCCS(=O)(=O)c1ccc(S(N)(=O)=O)s1
1.28	3.58 mM (≈ 1000 µg/mL)	NS(=O)(=O)c1ccc(SCCCCO)c(F)c1
-0.47	–	COC(=O)c1cc(S(N)(=O)=O)ccc1S(=O)(=O)CCO
-0.48	–	Nc1cc(S(N)(=O)=O)ccc1S(=O)(=O)CCCO
0.17	–	CC(=O)OCCCS(=O)(=O)c1ccc(S(N)(=O)=O)s1
-0.34	–	NS(=O)(=O)c1ccc(S(=O)(=O)CCCCO)s1
-0.36	–	NS(=O)(=O)c1ccc(S(=O)(=O)CCCO)s1

logP	solubility	SMILES
0.95	34.8 mM (≈ 9300 µg/mL)	NS(=O)(=O)c1ccc(SCCCCO)s1
–	7.16 mM (≈ 2100 µg/mL)	NS(=O)(=O)c1ccc(S(=O)(=O)CCCCO)cc1
1.04	10.7 mM (≈ 2600 µg/mL)	NS(=O)(=O)c1ccc(CCCCCO)cc1
-0.09	11.4 mM (≈ 3500 µg/mL)	CC(C)(O)CCS(=O)(=O)c1ccc(S(N)(=O)=O)cc1
1.86	–	CC(=O)OCCCCCc1ccc(S(N)(=O)=O)cc1
-0.6	11.6 mM (≈ 3300 µg/mL)	NS(=O)(=O)c1ccc(S(=O)(=O)CCO)c(F)c1
0.74	–	COC(=O)c1cc(S(N)(=O)=O)ccc1SCCCO
-0.85	24.9 mM (≈ 6600 µg/mL)	NS(=O)(=O)c1ccc(S(=O)(=O)CCO)cc1
0.96	0.342 mM (≈ 100 µg/mL)	NS(=O)(=O)c1ccc(SCCCO)c([N+](=O)[O-])c1
0.23	–	CC(C)CNCCS(=O)(=O)c1ccc(S(N)(=O)=O)cc1
0.93	3.06 mM (≈ 800 µg/mL)	NS(=O)(=O)c1ccc(SCCCCO)cc1
1.4	1.45 mM (≈ 400 µg/mL)	CC(C)(O)CCSc1ccc(S(N)(=O)=O)cc1
1.59	–	NS(=O)(=O)c1ccc(SCCCO)c(Cl)c1
0.85	–	NS(=O)(=O)c1ccc(SCCCO)s1
-0.64	25.8 mM (≈ 7200 µg/mL)	NS(=O)(=O)c1ccc(S(=O)(=O)CCCO)cc1
-0.26	–	NS(=O)(=O)c1ccc(S(=O)(=O)CCCCO)c(F)c1
0.99	3.39 mM (≈ 900 µg/mL)	NS(=O)(=O)c1ccc(SCCCO)c(F)c1
-0.41	22.2 mM (≈ 6600 µg/mL)	NS(=O)(=O)c1ccc(S(=O)(=O)CCCO)c(F)c1
